Assay [1] has as its system CFA-induced thermal hyperalgesia. The assay can be described thus: CFA model, thermal hyperalgesia (Hargreaves plantar test). It counts as in vivo, rat. The method, then: Assessment of thermal hyperalgesia: Baseline and post-treatment withdrawal latencies to a noxious thermal stimulus were measured according to Hargreaves (Hargreaves et al., 1988) using a plantar test analgesia meter (IITC, Woodland Hills, Calif., model # 336). The stimulus intensity was set at 30% of maximum output and the cut-off time was set at 30 seconds. Rats were placed on a glass plate warmed to 28° C. and allowed to habituate to the testing chambers for a minimum of 15 minutes prior to each testing session. The thermal stimulus was applied to the plantar surface of the paw, and the mean latency of three readings on each paw was used as the latency value for each time point. Thermal thresholds were defined as the latency in seconds to the first pain behavior, which includes nocifensive paw withdrawal, flinching, biting and/or licking of the stimulated paw. The mean and standard error of the mean (SEM) were determined for the injured and normal paws for each treatment group.
For comparison, results with morphine (6 mg/kg sc) and indomethacin (30 mg/kg po) are shown. […] Data are expressed as mean±SEM, (n=10). **P<0.01, vs. baseline.

Assay [2] relates to CFA-induced inflammatory pain. Put plainly: CFA model of chronic inflammatory pain, hindpaw weight bearing (Incapacitance Tester). The settings on record: 24 h after CFA, 60 min after drug injection, n=7-8. It counts as in vivo, rat. As to the method:
Rats (body weight 260-300 g) were given a s.c. injection of CFA (50% in saline, 100 μl, Sigma) into the plantar surface of the hindpaw under brief halothane anaesthesia. After 24 h, they were then tested for hindpaw weight bearing responses, as assessed using an Incapacitance Tester (Linton Instrumentation, UK), (Zhu et al., 2005). The instrument incorporates a dual channel scale that separately measures the weight of the animal distributed to each hindpaw. While normal rats distribute their body weight equally between the two hindpaws (50-50), the discrepancy of weight distribution between an injured and non-injured paw is a natural reflection of the discomfort level in the injured paw (nocifensive behavior). The rats were placed in the plastic chamber designed so that each hindpaw rested on a separate transducer pad. […] For each rat, three readings from each paw were taken and then averaged. Side-to-side weight bearing difference was calculated as the average of the absolute value of the difference between two hindpaws from three trials (right paw reading-left paw reading).
Hindpaw weight bearing responses were measured in male Sprague-Dawley rats for 2-3 days prior to being given a hindpaw injection of CFA. Twenty-four hours later baseline responses were measured and rats were then administered Compound A (5, 10 and 20 mg/kg, i.p.), Compound H (10, 30 and 60 mg/kg) and morphine (3, 6 and 10 mg/kg). Weight bearing responses were then measured at 30, 60 and 120 min after drug or vehicle injection (data shown at 60 min.). […] Data are expressed as mean +/−SEM. *P<0.05, **P<0.01, *** P<0.001 vs baseline; +++: P<0.001 vs vehicle. All groups n=7-8.

With `COc1ccc2c(c1)c(CC(=O)O)c(C)n2C(=O)c1ccc(Cl)cc1` [indomethacin, reference compound], the “efficacy on CFA-induced thermal hyperalgesia” value in assay [1] (30 mg/kg po) is recorded as “fully efficacious”.

Turning to `CN1CC[C@]23c4c5ccc(O)c4O[C@H]2[C@@H](O)C=C[C@H]3[C@H]1C5` [morphine, reference compound], the “efficacy on CFA-induced thermal hyperalgesia” value in assay [1] (6 mg/kg sc) was “fully efficacious”. Also, in assay [2], the “CFA-induced change in hindpaw weight bearing compared with vehicle” value is “marked dose-dependent attenuation in the CFA-induced change in weight bearing”.

The values are drawn from patent US7718641B2, “Pyrrolo [3,4-H] isoquinoline compounds and methods for modulating gated ion channels” (Aros Pharma ApS, priority 2005, dated 2010).
